# According to patent US20240216354A1, “IMMUNOMODULATORY IMIDE DRUGS AS ZETA-CHAIN-ASSOCIATED PROTEIN KINASE 70 (ZAP70) AGONISTS AND USES THEREOF” (Dana-Farber Cancer Institute, Inc., priority 2019, published 2024):
# What was measured:
# IKZF3 = IKZF3 expression in KHYG-1 cells (immunoblotting); assay type: cell-based
# Description: (§1) (A) KHYG-1 cells were transfected with CRBN, IKZF1, or IKZF3 siRNA. The transfectants were then cultured for 24 h with pomalidomide (0.5 μM). The arrow indicates CRBN. (B) KHYG-1 cells were cultured with pomalidomide for 24 h (0.5 μM), in the presence or absence of bortezomib (BTZ; 2.5 and 5 nM). (C, D) KHYG-1 cells were cultured for 24 h with lenalidomide, pomalidomide, or CC-220 (i.e., iberdomide) (0.01-1 μM). Whole cell lysates and RNAs were subjected to immunoblotting using indicated Abs (C) and real-time q-PCR (D), respectively.
# granzyme-B (GZM-B) = test: GZM-B expression in KHYG-1 cells (immunoblotting, real-time qPCR); assay type: cell-based
# Description: (A) KHYG1 cells were cultured with pomalidomide (0.25-1 μM) for 24 h. (B) Isolated primary NK cells from healthy volunteers (#1, #2) were cultured with pomalidomide (0.3-1 μM) for 24 h. (C) KHYG-1 cells were transfected with Scsi or Zap-70si. After 48 h, cells were cultured for 24 h in the absence or presence (0.5 μM) of pomalidomide. Whole cell lysates and RNAs were subjected to immunoblotting using indicated Abs.
# (A) KHYG-1 cells were transfected with Scsi or CRBNsi. After 48 h, cells were cultured in the absence or presence of pomalidomide (0.5 μM) for 24 h, and cell lysates immunoblotted with indicated Abs. (B) KHYG-1 cells were transfected with Scsi or Zap-70si, and then cultured for 72 h with pomalidomide (0.25 μM), in the absence of IL-2. Cells were counted and incubated with calcein AM-labeled U266 for 4 h at indicated effector/target (E/T) ratios.
# as §1
# Zap-70 [1] = target: T1, Zap-70 (Homo sapiens, UniProt P43403); test: Immunoblotting of p-Zap-70, p-LAT and p-ERK in PBMCs; assay type: cell-based; set-up: endogenous in cells; host or cells: primary PBMCs, primary T cells and primary NK cells from healthy volunteers; settings: 16 h, Pom 0.01-1 μM, Len 1 μM
# T1 sequence (P43403 1-619): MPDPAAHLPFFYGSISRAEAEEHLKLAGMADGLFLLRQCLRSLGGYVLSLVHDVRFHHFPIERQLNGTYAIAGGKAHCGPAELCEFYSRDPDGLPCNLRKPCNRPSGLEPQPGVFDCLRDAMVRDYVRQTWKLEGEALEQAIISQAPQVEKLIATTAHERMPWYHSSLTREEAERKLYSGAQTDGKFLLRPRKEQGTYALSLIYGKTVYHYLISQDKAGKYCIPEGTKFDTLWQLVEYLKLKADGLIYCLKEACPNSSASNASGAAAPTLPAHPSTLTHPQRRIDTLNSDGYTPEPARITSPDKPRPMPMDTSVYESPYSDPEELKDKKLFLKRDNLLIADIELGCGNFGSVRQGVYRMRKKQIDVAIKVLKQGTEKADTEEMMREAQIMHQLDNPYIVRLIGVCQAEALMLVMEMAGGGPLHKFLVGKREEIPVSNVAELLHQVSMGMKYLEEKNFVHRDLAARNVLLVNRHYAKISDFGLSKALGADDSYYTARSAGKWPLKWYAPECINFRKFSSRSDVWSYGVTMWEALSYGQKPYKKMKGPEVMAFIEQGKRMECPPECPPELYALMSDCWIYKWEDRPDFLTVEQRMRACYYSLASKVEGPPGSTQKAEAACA
# Description: (A) PBMCs were cultured with pomalidomide (“Pom”) (0.01-1 μM) for 16 h. […] (B) PBMCs were cultured with pomalidomide (0.1 and 1 μM) for the indicated time periods. (C) PBMCs were cultured with lenalidomide (“Len”) (1 μM) for 16 h. (D) Primary T-cells from healthy volunteer were cultured with pomalidomide (0.25-1 μM) for 16 h. (E) Jurkat cells were cultured with pomalidomide (0.5 and 1 μM) for 16 h. Whole cell lysates were subjected to immunoblotting (A-E) using indicated Abs. (F) Jurkat cells were cultured with pomalidomide (0.01-1 μM) or lenalidomide (0.01-1 μM) for 72 h. Cell growth was assessed by MTT assay.
# To characterize the effect of IMiDs on Zap-70 function in immune effector cells, pomalidomide triggered phosphorylation of Zap-70 was evaluated along with its known downstream target linker of activated T-cells (LAT) in PBMCs from healthy volunteers. […] Image J densitometric analysis confirmed 42% increased p-Zap-70 after pomalidomide (1 μM) treatment (FIG. 1A, lower panel). The increased p-Zap-70, p-LAT, as well as downstream p-ERK in PBMCs triggered by pomalidomide is also time-dependent (FIG. 1B). […] Since Zap-70 is a mediator of T-cell receptor signaling, whether IMiDs triggered p-Zap-70 in T cells from healthy volunteers was studied.
# Zap-70 [2] = target: T1, Zap-70; test: PathScan Phospho-Zap-70 (Tyr319) Sandwich ELISA in Jurkat cells; assay type: cell-based; settings: lenalidomide (1 and 3 μM) or pomalidomide (1 and 3 μM), 4 h and 8 h, Len<Pom
# Description: (§2) (A) Jurkat cells were transfected with scrambled (Sc) siRNA or Zap-70 siRNA. Whole cell lysates were subjected to immunoblotting using indicated Abs. (B) Jurkat cells were treated with lenalidomide ([…]) or pomalidomide (1 and 3 μM) for 4 h and 8 h. Whole cell lysates were subjected to p-Zap ELISA assay. (C) Jurkat whole cell lysates were incubated with pomalidomide-beads in the presence or absence of competitor (1 mM free pomalidomide) for 1 h. After elution, samples were subjected to immunoblotting using anti-Zap-70 Ab. (D) Saturation-transfer difference resulting from the binding of pomalidomide to Zap-70. Pomalidomide is at 320 μM and Zap-70 is approximately 2 μM in deuterated PBS solution. […] (E) Saturation-transfer difference resulting from the binding of pomalidomide to Zap-70 in the presence of 2.56 mMATP. Pomalidomide is at 320 μM and Zap-70 is approximately 2 μM in deuterated PBS solution. […] Note that both ATP and pomalidomide show binding the Zap-70. (F) Non-cell based Zap-70 kinase assay was carried out, according to manufacturer's protocol.
# Phosphorylation of Zap-70 was evaluated using PathScan Phospho-Zap-70 (Tyr319) Sandwich ELISA Kit (Cell Signaling Technology), according to manufacturer's protocol.
# Zap-70 [3] = target: T1, Zap-70; test: Saturation-transfer difference (STD) NMR binding to recombinant Zap-70; set-up: purchased Origene, Rockville, MD; settings: Pom 320 μM, Len 2.56 mM, ATP 2.56 mM, Zap-70 approximately 2 μM, deuterated PBS
# Description: as §2
# (A) Saturation-transfer difference resulting from the binding of lenalidomide to Zap-70, with lenalidomide (2.56 mM) and Zap-70 (2 μM) in deuterated PBS solution. […] (B) Saturation-transfer difference resulting from the binding of lenalidomide to Zap70 in the presence of 2.56 mM ATP, with lenalidomide (2.56 mM) and Zap-70 (2 μM) in deuterated PBS solution.
# Commercial recombinant Zap-70 (Origene, Rockville, MD) was prepared by gel filtration buffer exchange into deuterated phosphate-buffered saline (PBS), which removed any components of the protein storage buffer, including glycerol. Len and Pom were made as d6-DMSO stock solutions and frozen in aliquots prior to use. ATP was stored frozen in aliquots at −20° C. in deuterated PBS. NMR samples were prepared in 5 mm SampleJet tubes to a final volume of 500 μl by adding 5-20 μl of the appropriate IMiD stock solution to the buffer-exchanged protein. The final concentration of protein in the NMR samples was approximately 2 μM. […]
# CRBN = CRBN (Homo sapiens, UniProt Q96SW2); settings: cited from earlier work
# Zap-70 [4] = target: T1, Zap-70; test: Immunoblotting of p-Zap-70 in NK-92 cells; assay type: cell-based; settings: 24 h, Pom 0.5 and 1 μM, CC-220 0.01, 0.1, 1 μM
# Description: (§3) (A) NK-92 cells were cultured with Pom (0.5 and 1 μM) for 24 h. Whole cell lysates were subjected to immunoblotting using indicated Abs. (B) NK-92 cells were cultured with Pom (0.5 and 1 μM) for 48 h. The cells were subsequently incubated with calcein-AM-stained U266 cells for 4 h at the indicated effector/target (E/T) ratios. Percent specific lysis was calculated as described previously. (C) NK-92 cells were cultured with Pom (0.03-3 μM) for 72 h. Cell growth was assessed by MTT assay. (D) NK-92 cells were transfected with scrambled (Sc) or Zap-70 siRNA (Zap70si). After 72 h incubation, cell viability was measured by trypan-blue dye exclusion. For B, C, and D, data are representative of at least two independent experiments, and values are expressed in mean±SD.
# (§4) (A) NK-92 cells were cultured with Len (1 μM), Pom (0.01, 0.1, 1 μM) or CC-220 (0.01, 0.1, 1 μM) for 24 h. Whole cell lysates were subjected to immunoblotting using indicated Abs. (B) NK-92 cells were cultured with Pom (0.1 and 1 μM) or CC-220 ([…]) for 48 h. NK cell activity was measured by incubation with calcein AM-labeled U266 cells for 4 h at E/T ratio of 2.5/1. Percent specific lysis was calculated as previously described. Data are representative of three independent experiments, and values are expressed in mean±SD. *: p<0.01.
# U266 cells = test: NK-92 NK cell activity against calcein-AM-stained U266 cells; assay type: cell-based; settings: NK-92 cells, 48 h; Pom 0.5 and 1 μM; CC-220 0.1 and 1 μM, E/T 2.5/1
# Description: as §3, §4
# [5] = pomalidomide 0.5 μM 24 h, BTZ 2.5 and 5 nM
# Sequence of CRBN (Q96SW2 whole entry, species assumed): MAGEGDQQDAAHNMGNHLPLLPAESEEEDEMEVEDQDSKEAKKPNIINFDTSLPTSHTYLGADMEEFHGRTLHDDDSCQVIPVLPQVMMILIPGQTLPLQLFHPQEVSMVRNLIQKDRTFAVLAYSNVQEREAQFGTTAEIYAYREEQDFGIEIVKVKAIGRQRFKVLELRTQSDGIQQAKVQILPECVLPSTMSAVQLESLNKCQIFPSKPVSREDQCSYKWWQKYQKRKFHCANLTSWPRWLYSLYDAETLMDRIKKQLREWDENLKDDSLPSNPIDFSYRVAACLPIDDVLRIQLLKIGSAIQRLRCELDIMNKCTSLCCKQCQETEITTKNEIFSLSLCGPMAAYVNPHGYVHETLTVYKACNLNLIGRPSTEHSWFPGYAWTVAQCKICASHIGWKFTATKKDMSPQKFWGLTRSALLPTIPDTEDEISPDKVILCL
smiles,measurement,setting,value
CC(C)C[C@H](NC(=O)[C@H](Cc1ccccc1)NC(=O)c1cnccn1)B(O)O [bortezomib],IKZF3 expression in presence of bortezomib,IKZF3; [5],upregulation of IKZF3
same,Pom-induced GZM-B expression in presence of bortezomib,granzyme-B (GZM-B); [5],downregulated Pom-induced GZM-B expression in a dose-dependent fashion
Nc1cccc2c1CN(C1CCC(=O)NC1=O)C2=O (stereo not drawn) [lenalidomide],phosphorylation of LAT (immunoblotting),Zap-70 [1],similarly triggered p-Zap-70 and p-LAT in PBMCs
same,phosphorylation of Zap-70 (immunoblotting),Zap-70 [1],similarly triggered p-Zap-70 and p-LAT in PBMCs
same,p-Zap-70 (Tyr319) by ELISA,Zap-70 [2],increased p-Zap-70 (Tyr319) in a dose-dependent fashion
same,direct binding to Zap-70 (STD NMR),Zap-70 [3],similarly binds to Zap-70
"O=C1CC[C@H](N2Cc3c(OCc4ccc(CN5CCOCC5)cc4)cccc3C2=O)C(=O)N1 [CC-220, iberdomide]",binding affinity to CRBN relative to lenalidomide or pomalidomide,CRBN,enhanced binding affinity to CRBN relative to lenalidomide or pomalidomide
same,IKZF3 expression,"IKZF3; 0.01-1 μM, 24 h",downregulation of IKZF3
same,p-Zap-70 (immunoblotting),Zap-70 [4],induced p-Zap-70 in a dose-dependent fashion
same,"potency in triggering GZM-B, compared among lenalidomide, pomalidomide and CC-220","granzyme-B (GZM-B); 0.01-1 μM, 24 h, immunoblotting and real-time qPCR",more potently upregulated GZM-B than lenalidomide or pomalidomide
same,NK cell activity against U266 cells (percent specific lysis),U266 cells,enhanced NK cell activity
Nc1ncnc2c1ncn2[C@@H]1O[C@H](COP(=O)(O)OP(=O)(O)OP(=O)(O)O)[C@@H](O)[C@H]1O [ATP],direct binding to Zap-70 (STD NMR),Zap-70 [3],both ATP and lenalidomide bind to Zap-70
